Results as given in ChEMBL document CHEMBL1201862, “PubChem BioAssay data set” (2004).
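The compound was tested at five concentrations on cells cultured in 96-well plates, with a 48-hour exposure period. The concentration for 50% growth inhibition is given as GI50.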 Activity calls are given as the source filed them. No stated cut-off is given here; in the data, active = GI50 up to about 1.1 µM and inactive = higher.

Legend:
Test in all cases: NCI-60 cell line screen, 48 h
[1] = test system: HCT-116
[2] = test system: Hs-578T
[3] = test system: SK-MEL-5
[4] = test system: OVCAR-4
[5] = test system: K562
[6] = test system: ACHN
[7] = test system: U-251
[8] = test system: Malme-3M
[9] = test system: A549
[10] = test system: CCRF-CEM
[11] = test system: LOX IMVI
[12] = test system: HL-60
[13] = test system: SK-MEL-2
[14] = test system: UACC-62
[15] = test system: SF-295
[16] = test system: KM12
[17] = test system: SF-539
[18] = test system: HOP-62
[19] = test system: COLO 205
[20] = test system: MOLT-4

Measured: GI50

CC(C)(C)[C@H]1CCC2(OCCO2)[C@](O)(CCCO)C1
inactive: [1] > 100 µM | [2] > 100 µM | [3] > 100 µM | [4] > 100 µM | [5] > 100 µM | [6] > 100 µM | [7] > 100 µM | [8] > 100 µM | [9] > 100 µM | [10] > 100 µM | [11] > 100 µM | [12] > 100 µM | [13] > 100 µM | [14] > 100 µM | [15] > 100 µM | [16] > 100 µM | [17] > 100 µM | [18] > 100 µM | [19] > 100 µM | [20] > 100 µM

COC(=O)c1c2c(cc3c1CC1(Cc4cc5c(cc4C1=O)CCC5)C3)CCC2 (stereo not given)
inactive: [1] 13.3 µM | [2] 16.4 µM | [3] 10.5 µM | [4] 34.3 µM | [5] 7.94 µM | [6] 86.1 µM | [7] 83.9 µM | [8] 32.9 µM | [9] 56.6 µM | [10] 11 µM | [11] 7.18 µM | [12] > 100 µM | [13] > 100 µM | [14] 39.1 µM | [15] 21.5 µM | [16] 38.7 µM | [17] 97.7 µM | [18] 34.3 µM | [19] 79.3 µM | [20] 5.47 µM

CC(=O)OC[C@@H](OC(C)=O)[C@@H](OC(C)=O)[C@H]1OC[C@@H]2C[C@H]([C@H]1OC(C)=O)N(Cc1ccccc1)O2
inactive: [1] > 100 µM | [2] > 100 µM | [3] > 100 µM | [4] > 100 µM | [5] > 100 µM | [6] > 100 µM | [7] > 100 µM | [8] > 100 µM | [9] > 100 µM | [10] > 100 µM | [11] > 100 µM | [12] > 100 µM | [13] > 100 µM | [14] > 100 µM | [15] > 100 µM | [16] > 100 µM | [17] > 100 µM | [18] > 100 µM | [19] > 100 µM | [20] > 100 µM

CCOC(=O)C12CC(C)=C(C)CC1CCCc1ccccc12 (stereo not given)
inactive: [1] 14.7 µM | [2] 36.1 µM | [3] 21.5 µM | [4] 32.5 µM | [5] 21.2 µM | [6] 18.8 µM | [7] 18.4 µM | [8] 23 µM | [9] 32.7 µM | [10] 18.4 µM | [11] 17.1 µM | [12] 11.2 µM | [13] 15.5 µM | [14] 21.9 µM | [15] 25.1 µM | [16] 29.6 µM | [17] 28.2 µM | [18] 38.3 µM | [19] 16.6 µM | [20] 18 µM

COc1ccc2nc3c([N+](=O)[O-])ccc4c3c(c2c1)N(CCCN(C)C)C(=S)N4CCCN(C)C
inactive: [1] 2.1 µM | [2] 7.94 µM | [3] 4.94 µM | [4] 8.05 µM | [5] 1.77 µM | [6] 4.1 µM | [7] 6.37 µM | [8] 2.65 µM | [9] 5.45 µM | [10] 4.98 µM | [11] 3.28 µM | [12] 66.4 µM | [13] 16.1 µM | [14] 16 µM | [15] 4.6 µM | [16] 2.5 µM | [17] 4 µM | [18] 5.19 µM | [19] 1.54 µM | [20] 3.5 µM

CCO/C=N/C1=C(C#N)C(c2ccc(Cl)cc2)c2c(-c3ccccc3)nn(-c3ccccc3)c2O1 (stereo not given)
inactive: [1] 7.5 µM | [2] 6.12 µM | [3] > 10 µM | [4] 11.4 µM | [5] 7.78 µM | [6] 8.51 µM | [7] 8.55 µM | [8] 12.3 µM | [9] 5.73 µM | [10] 5.73 µM | [11] 9.62 µM | [12] 5.66 µM | [13] 11.7 µM | [14] 12.2 µM | [15] 7.43 µM | [16] 5.09 µM | [17] 6.14 µM | [18] 19.1 µM | [19] 5.27 µM | [20] 6.93 µM

c1ccc2c(c1)CCN2CCc1c[nH]c2ccccc12
inactive: [1] > 10 µM | [2] > 10 µM | [3] > 10 µM | [4] > 10 µM | [5] > 10 µM | [6] > 10 µM | [7] > 10 µM | [8] > 10 µM | [9] > 10 µM | [10] > 10 µM | [11] > 10 µM | [12] > 10 µM | [13] > 10 µM | [14] > 10 µM | [15] > 10 µM | [16] > 10 µM | [17] > 10 µM | [18] > 10 µM | [19] > 10 µM | [20] > 10 µM
